Measured values from PubChem BioAssay AID2060892 (Molecular Pharmacology Branch, DTP, NCI, 2025).

Tested on: HOP-62 complex spheroids with HUVEC/MSC, viability
Assay: Anticancer human tumor HOP-62 cell line growth inhibition [RAS];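 also: spheroids exposed to agents for seven days before readout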;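 as to viability, T/C: 100% = DMSO vehicle control viability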
Settings: for IC50: curve of first compound; for viability, T/C: stronger effect = lower value
How it was run: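 Multi-cell-type spheroids: tumor cells plus HUVEC endothelial cells and mesenchymal stem cells. RAS-pathway inhibitors were combined with targeted agents, each dosed in half-log steps down from clinical Cmax, or from 10 microM when Cmax was unknown.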

[1] = second compound 0.00316 µM, first compound 0.0316 µM
[2] = second compound 0.00316 µM, first compound 0.1 µM
[3] = second compound 0.00316 µM, first compound 0.316 µM
[4] = second compound 0.00316 µM, first compound 1 µM
[5] = second compound 0.00316 µM, first compound 3.16 µM
[6] = second compound 0.00316 µM, first compound 10 µM
[7] = second compound 0.01 µM, first compound 0.0316 µM
[8] = second compound 0.01 µM, first compound 0.1 µM
[9] = second compound 0.01 µM, first compound 0.316 µM
[10] = second compound 0.01 µM, first compound 1 µM
[11] = second compound 0.01 µM, first compound 3.16 µM
[12] = second compound 0.01 µM, first compound 10 µM
[13] = second compound 0.0316 µM, first compound 0.0316 µM
[14] = second compound 0.0316 µM, first compound 0.1 µM
[15] = second compound 0.0316 µM, first compound 0.316 µM
[16] = second compound 0.0316 µM, first compound 1 µM
[17] = second compound 0.0316 µM, first compound 3.16 µM
[18] = second compound 0.0316 µM, first compound 10 µM
[19] = second compound 0.1 µM, first compound 0.0316 µM
[20] = second compound 0.1 µM, first compound 0.1 µM
[21] = second compound 0.1 µM, first compound 0.316 µM
[22] = second compound 0.1 µM, first compound 1 µM
[23] = second compound 0.1 µM, first compound 3.16 µM
[24] = second compound 0.1 µM, first compound 10 µM
[25] = second compound 0.316 µM, first compound 0.0316 µM
[26] = second compound 0.316 µM, first compound 0.1 µM
[27] = second compound 0.316 µM, first compound 0.316 µM
[28] = second compound 0.316 µM, first compound 1 µM
[29] = second compound 0.316 µM, first compound 3.16 µM
[30] = second compound 0.316 µM, first compound 10 µM
[31] = second compound 1 µM, first compound 0.0316 µM
[32] = second compound 1 µM, first compound 0.1 µM
[33] = second compound 1 µM, first compound 0.316 µM
[34] = second compound 1 µM, first compound 1 µM
[35] = second compound 1 µM, first compound 3.16 µM
[36] = second compound 1 µM, first compound 10 µM

NC1c2ccccc2OC12CCN(c1cnc3c(N4CCCc5ncccc54)n[nH]c3n1)CC2 (stereo unspecified) + C=CC(=O)N1CCN(c2nc(OCC3CCCN3C)nc3c(F)c(-c4nc(N)cc(C)c4C(F)(F)F)c(Cl)cc23)C(C)C1
IC50 (second compound 0.00316 µM): < 31.6 nM
IC50 (second compound 0.01 µM): < 31.6 nM
IC50 (second compound 0.0316 µM): < 31.6 nM
IC50 (second compound 0.1 µM): < 31.6 nM
IC50 (second compound 0.316 µM): < 31.6 nM
IC50 (second compound 1 µM): < 31.6 nM
viability, T/C [1]: 45.5%
viability, T/C [2]: 30.2%
viability, T/C [3]: 15%
viability, T/C [4]: 13.9%
viability, T/C [5]: 9.04%
viability, T/C [6]: 8.74%
viability, T/C [7]: 34.9%
viability, T/C [8]: 22.6%
viability, T/C [9]: 11.9%
viability, T/C [10]: 11.9%
viability, T/C [11]: 9.09%
viability, T/C [12]: 10.8%
viability, T/C [13]: 30.6%
viability, T/C [14]: 18.5%
viability, T/C [15]: 12.2%
viability, T/C [16]: 10.9%
viability, T/C [17]: 10.3%
viability, T/C [18]: 7.74%
viability, T/C [19]: 30.8%
viability, T/C [20]: 15.1%
viability, T/C [21]: 11%
viability, T/C [22]: 10.3%
viability, T/C [23]: 9.12%
viability, T/C [24]: 8.09%
viability, T/C [25]: 28.3%
viability, T/C [26]: 14.4%
viability, T/C [27]: 11.2%
viability, T/C [28]: 10.5%
viability, T/C [29]: 6.82%
viability, T/C [30]: 8.51%
viability, T/C [31]: 29.5%
viability, T/C [32]: 15.3%
viability, T/C [33]: 10.8%
viability, T/C [34]: 9.35%
viability, T/C [35]: 10.7%
viability, T/C [36]: 5.7%

O=C(c1ccc(F)c(F)c1Nc1ccc(I)cc1F)N1CC(O)([C@@H]2CCCCN2)C1 + C=CC(=O)N1CCN(c2nc(OCC3CCCN3C)nc3c(F)c(-c4nc(N)cc(C)c4C(F)(F)F)c(Cl)cc23)C(C)C1
IC50 (second compound 0.00316 µM): 46.5 nM
IC50 (second compound 0.01 µM): 38.3 nM
IC50 (second compound 0.0316 µM): 20 nM
IC50 (second compound 0.1 µM): 22.7 nM
IC50 (second compound 0.316 µM): 14 nM
IC50 (second compound 1 µM): 17.6 nM
viability, T/C (second compound 0.00316 µM, first compound 0.00316 µM): 77.1%
viability, T/C (second compound 0.00316 µM, first compound 0.01 µM): 77.8%
viability, T/C [1]: 55.2%
viability, T/C [2]: 36.5%
viability, T/C [3]: 20%
viability, T/C [4]: 19.2%
viability, T/C (second compound 0.01 µM, first compound 0.00316 µM): 68.2%
viability, T/C (second compound 0.01 µM, first compound 0.01 µM): 65.5%
viability, T/C [7]: 52.2%
viability, T/C [8]: 35.1%
viability, T/C [9]: 18.8%
viability, T/C [10]: 15%
viability, T/C (second compound 0.0316 µM, first compound 0.00316 µM): 68.1%
viability, T/C (second compound 0.0316 µM, first compound 0.01 µM): 60.1%
viability, T/C [13]: 42.2%
viability, T/C [14]: 30.6%
viability, T/C [15]: 15.1%
viability, T/C [16]: 13.3%
viability, T/C (second compound 0.1 µM, first compound 0.00316 µM): 64.8%
viability, T/C (second compound 0.1 µM, first compound 0.01 µM): 54.5%
viability, T/C [19]: 49.3%
viability, T/C [20]: 27.8%
viability, T/C [21]: 15.7%
viability, T/C [22]: 10.7%
viability, T/C (second compound 0.316 µM, first compound 0.00316 µM): 57%
viability, T/C (second compound 0.316 µM, first compound 0.01 µM): 57.2%
viability, T/C [25]: 38.7%
viability, T/C [26]: 28%
viability, T/C [27]: 16.6%
viability, T/C [28]: 10.5%
viability, T/C (second compound 1 µM, first compound 0.00316 µM): 63.6%
viability, T/C (second compound 1 µM, first compound 0.01 µM): 59.4%
viability, T/C [31]: 40.6%
viability, T/C [32]: 24.3%
viability, T/C [33]: 13.1%
viability, T/C [34]: 9.01%

CC1(O)CCCC1n1c(=O)c(C(F)F)cc2cnc(NC3CCN(S(C)(=O)=O)CC3)nc21 (stereo unspecified) + C=CC(=O)N1CCN(c2nc(OCC3CCCN3C)nc3c(F)c(-c4nc(N)cc(C)c4C(F)(F)F)c(Cl)cc23)C(C)C1
IC50 (second compound 0.00316 µM): 140 nM
IC50 (second compound 0.01 µM): 94.8 nM
IC50 (second compound 0.0316 µM): 40.3 nM
IC50 (second compound 0.1 µM): 81.2 nM
IC50 (second compound 0.316 µM): < 31.6 nM
IC50 (second compound 1 µM): 55.7 nM
viability, T/C [1]: 64%
viability, T/C [2]: 47.8%
viability, T/C [3]: 38.4%
viability, T/C [4]: 35.6%
viability, T/C [5]: 32.3%
viability, T/C [6]: 1.76%
viability, T/C [7]: 66.3%
viability, T/C [8]: 43.9%
viability, T/C [9]: 28.7%
viability, T/C [10]: 34%
viability, T/C [11]: 27.7%
viability, T/C [12]: 0.91%
viability, T/C [13]: 55.5%
viability, T/C [14]: 39.8%
viability, T/C [15]: 29.9%
viability, T/C [16]: 28.3%
viability, T/C [17]: 22.9%
viability, T/C [18]: 0.75%
viability, T/C [19]: 66.5%
viability, T/C [20]: 40%
viability, T/C [21]: 30.1%
viability, T/C [22]: 30%
viability, T/C [23]: 29.5%
viability, T/C [24]: 0.8%
viability, T/C [25]: 53.6%
viability, T/C [26]: 37.6%
viability, T/C [27]: 30.6%
viability, T/C [28]: 32.6%
viability, T/C [29]: 21.9%
viability, T/C [30]: 0.96%
viability, T/C [31]: 59.4%
viability, T/C [32]: 39.4%
viability, T/C [33]: 29.9%
viability, T/C [34]: 27.2%
viability, T/C [35]: 25.7%
viability, T/C [36]: 1.08%
